The results in this text go back to PMC11369174, “Proteome-scale characterisation of motif-based interactome rewiring by disease mutations” (Molecular Systems Biology, 2024).

Holding throughout (details): domain titrated to 10 nM FITC-peptide, 50 mM sodium phosphate pH 7.4, 0.05% Tween, quadratic fit, technical triplets, read-out: KD [µM] + SE
One experiment deals with T1, Clathrin NTD (Homo sapiens, UniProt Q00610).
T1 sequence (Q00610 1-364): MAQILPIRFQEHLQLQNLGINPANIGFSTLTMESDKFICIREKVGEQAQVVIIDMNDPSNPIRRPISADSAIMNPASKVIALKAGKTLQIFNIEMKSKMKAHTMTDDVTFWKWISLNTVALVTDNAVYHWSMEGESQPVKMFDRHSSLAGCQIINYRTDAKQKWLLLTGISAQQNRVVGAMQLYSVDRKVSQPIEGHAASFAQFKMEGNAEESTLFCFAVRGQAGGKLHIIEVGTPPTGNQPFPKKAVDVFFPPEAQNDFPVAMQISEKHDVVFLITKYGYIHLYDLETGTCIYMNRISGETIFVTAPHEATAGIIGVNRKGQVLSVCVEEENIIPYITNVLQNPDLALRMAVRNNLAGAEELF
The experiment is described as follows: FP saturation binding, Clathrin NTD.

The next experiment addresses KPNA4 ARM minor (Homo sapiens, UniProt O00629). The experiment is described as follows: FP saturation binding, KPNA4 ARM (minor).
For another experiment, the target named is KPNA7 ARM (minor) (Homo sapiens, UniProt A9QM74). The experiment is described as follows: FP saturation binding, KPNA7 ARM (minor).
The target of a further experiment is CREBBP KIX (Homo sapiens, UniProt Q92793). Put plainly: FP saturation binding, CREBBP KIX.
In a further experiment the target is ABL1 SH3 (Homo sapiens, UniProt P00519). The experiment is described as follows: FP saturation binding, ABL1 SH3.

Where a SMILES comes first, the peptide text is derived from it. The star is where a group is joined. FITC = O=C1OC2(c3ccc(O)cc3Oc3cc(O)ccc32)c2ccc(NC(=S)*)cc21

Chain of KPNA7 ARM (minor) (A9QM74 58-488 limits assumed): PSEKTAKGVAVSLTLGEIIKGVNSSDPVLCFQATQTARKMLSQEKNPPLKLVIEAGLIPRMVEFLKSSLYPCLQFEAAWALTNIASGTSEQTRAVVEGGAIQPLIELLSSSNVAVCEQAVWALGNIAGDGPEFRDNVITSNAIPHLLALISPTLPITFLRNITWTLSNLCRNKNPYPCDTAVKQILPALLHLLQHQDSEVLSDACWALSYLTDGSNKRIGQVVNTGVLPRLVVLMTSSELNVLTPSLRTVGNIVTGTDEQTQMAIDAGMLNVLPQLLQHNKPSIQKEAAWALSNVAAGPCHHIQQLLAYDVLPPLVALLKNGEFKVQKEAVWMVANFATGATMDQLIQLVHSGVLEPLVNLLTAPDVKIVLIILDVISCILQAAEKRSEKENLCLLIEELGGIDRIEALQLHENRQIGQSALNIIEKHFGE
Chain of CREBBP KIX (Q92793 587-673): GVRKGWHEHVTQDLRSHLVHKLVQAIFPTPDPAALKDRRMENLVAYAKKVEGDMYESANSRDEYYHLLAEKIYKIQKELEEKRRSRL
Chain of ABL1 SH3 (P00519 60-121): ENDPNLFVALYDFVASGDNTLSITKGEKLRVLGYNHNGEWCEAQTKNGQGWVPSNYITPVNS
Chain of KPNA4 ARM minor (O00629 68-487): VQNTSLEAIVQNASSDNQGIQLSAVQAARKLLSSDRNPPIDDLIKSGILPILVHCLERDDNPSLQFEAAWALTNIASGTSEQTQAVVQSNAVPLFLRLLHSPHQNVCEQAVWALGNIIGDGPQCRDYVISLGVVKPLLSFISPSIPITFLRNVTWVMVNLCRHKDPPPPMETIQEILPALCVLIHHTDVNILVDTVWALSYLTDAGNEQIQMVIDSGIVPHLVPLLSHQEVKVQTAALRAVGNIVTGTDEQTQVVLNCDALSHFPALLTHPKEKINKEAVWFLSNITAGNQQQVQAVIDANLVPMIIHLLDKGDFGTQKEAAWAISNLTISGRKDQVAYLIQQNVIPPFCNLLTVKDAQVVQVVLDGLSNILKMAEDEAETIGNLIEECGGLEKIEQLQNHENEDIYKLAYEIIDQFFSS
Description for Clathrin NTD: In order to calculate the FP signal in millipolarisation (mP), the FITC-labelled peptides were excited at 485 nm and the emitted light was measured at 535 nm in two different angles. For saturation experiments, a dilution series of the respective protein domains was generated (25 µL) and 10 nM fluorescein isothiocyanate (FITC)-labelled peptide (diluted in 50 mM sodium phosphate buffer pH 7.4, 0.05% Tween) were added in an end volume of 50 µL. A control experiment titrating GST was performed for the binding of the NEDD4 WW2 domain, since the GST-tagged construct was used for affinity measurements. For fitting the data, the buffer-corrected reduced values were plotted in GraphPad PRISM against the respective protein concentration and the KD-values were obtained by fitting against the quadratic equation (Gianni et al, [2005]).

The term Kd denotes the constant that tells how readily two partners part at equilibrium. Take `CC[C@H](C)[C@H](NC(=O)[C@H](CC(C)C)NC(=O)[C@H](CC(=O)O)NC(=O)[C@@H](NC(=O)[C@H](CO)NC(=S)Nc1ccc2c(c1)C(=O)OC21c2ccc(O)cc2Oc2cc(O)ccc21)C(C)C)C(=O)N[C@H](C(=O)N[C@@H](Cc1ccccc1)C(=O)N[C@@H](CC(=O)O)C(=O)N[C@@H](CO)C(=O)N[C@H](C(N)=O)C(C)C)[C@@H](C)O` [FITC-NSP3] ({FITC}-SVDLITFDSV-NH2): at Clathrin NTD, the Kd worked out at 21 ± 3 µM.

For the compound `CC[C@H](C)[C@H](NC(=O)[C@H](C)NC(=O)[C@H](CCCNC(=N)N)NC(=O)CNC(=O)[C@@H](NC(=O)[C@H](CCCNC(=N)N)NC(=O)CNC(=O)[C@H](CCC(=O)O)NC(=O)[C@H](CCSC)NC(=O)[C@H](CCSC)NC(=O)[C@H](CC(=O)O)NC(=O)[C@H](Cc1ccc(O)cc1)NC(=O)[C@@H](NC(=O)[C@H](CCCNC(=N)N)NC(=O)[C@H](CCCCN)NC(=O)[C@@H]1CCCN1C(=S)Nc1ccc2c(c1)C(=O)OC21c2ccc(O)cc2Oc2cc(O)ccc21)[C@@H](C)O)C(C)C)C(N)=O` [FITC-NCOR2] ({FITC}-PKRTYDMMEGRVGRAI-NH2), the equilibrium dissociation constant (Kd) at KPNA4 ARM minor was determined as 0.03 ± 0.002 µM; on KPNA7 ARM (minor), 57 ± 9 µM.

In the case of `CC(C)C[C@H](NC(=O)[C@H](CC(C)C)NC(=O)[C@H](CC(=O)O)NC(=O)[C@H](CO)NC(=O)[C@H](CC(C)C)NC(=O)[C@H](CCC(=O)O)NC(=O)[C@H](CCCCN)NC(=O)[C@H](CC(=O)O)NC(=S)Nc1ccc2c(c1)C(=O)OC21c2ccc(O)cc2Oc2cc(O)ccc21)C(=O)N[C@@H](CC(=O)O)C(=O)N[C@@H](Cc1ccccc1)C(=O)N[C@@H](CO)C(N)=O` [FITC-TCF3] ({FITC}-DKELSDLLDFS-NH2), the Kd at CREBBP KIX amounted to 35 ± 4 µM.

On to `CC(C)[C@H](NC(=O)[C@@H]1CCCN1C(=O)[C@@H]1CCCN1C(=O)[C@@H]1CCCN1C(=O)[C@@H]1CCCN1C(=O)[C@H](Cc1ccc(O)cc1)NC(=O)[C@H](C)NC(=O)[C@@H]1CCCN1C(=O)[C@@H]1CCCN1C(=O)[C@H](Cc1c[nH]cn1)NC(=S)Nc1ccc2c(c1)C(=O)OC21c2ccc(O)cc2Oc2cc(O)ccc21)C(=O)N1CCC[C@H]1C(=O)N[C@H](C(N)=O)[C@@H](C)O` [FITC-3BP2] ({FITC}-HPPAYPPPPVPT-NH2), for which the equilibrium dissociation constant (Kd) on ABL1 SH3 was found to be 3.7 ± 0.4 µM.
